Active and inactive are the calls of the source.
Tests used:
[1] = target: T1, Aryl hydrocarbon receptor (Homo sapiens, UniProt P35869); experiment: Luminescence-based cell-based high throughput dose response assay for activators of the Aryl Hydrocarbon Receptor (AHR). [Related pubchem assays: 2796 (Primary screen (AHR activators in singlicate)), 2845 (Confirmation screen (AHR activators in triplicate)), 434939 (Counterscreen (PXR activators in triplicate)), 2804 (Summary (AHR activators))]; type: ADME
T1 sequence (P35869 whole entry): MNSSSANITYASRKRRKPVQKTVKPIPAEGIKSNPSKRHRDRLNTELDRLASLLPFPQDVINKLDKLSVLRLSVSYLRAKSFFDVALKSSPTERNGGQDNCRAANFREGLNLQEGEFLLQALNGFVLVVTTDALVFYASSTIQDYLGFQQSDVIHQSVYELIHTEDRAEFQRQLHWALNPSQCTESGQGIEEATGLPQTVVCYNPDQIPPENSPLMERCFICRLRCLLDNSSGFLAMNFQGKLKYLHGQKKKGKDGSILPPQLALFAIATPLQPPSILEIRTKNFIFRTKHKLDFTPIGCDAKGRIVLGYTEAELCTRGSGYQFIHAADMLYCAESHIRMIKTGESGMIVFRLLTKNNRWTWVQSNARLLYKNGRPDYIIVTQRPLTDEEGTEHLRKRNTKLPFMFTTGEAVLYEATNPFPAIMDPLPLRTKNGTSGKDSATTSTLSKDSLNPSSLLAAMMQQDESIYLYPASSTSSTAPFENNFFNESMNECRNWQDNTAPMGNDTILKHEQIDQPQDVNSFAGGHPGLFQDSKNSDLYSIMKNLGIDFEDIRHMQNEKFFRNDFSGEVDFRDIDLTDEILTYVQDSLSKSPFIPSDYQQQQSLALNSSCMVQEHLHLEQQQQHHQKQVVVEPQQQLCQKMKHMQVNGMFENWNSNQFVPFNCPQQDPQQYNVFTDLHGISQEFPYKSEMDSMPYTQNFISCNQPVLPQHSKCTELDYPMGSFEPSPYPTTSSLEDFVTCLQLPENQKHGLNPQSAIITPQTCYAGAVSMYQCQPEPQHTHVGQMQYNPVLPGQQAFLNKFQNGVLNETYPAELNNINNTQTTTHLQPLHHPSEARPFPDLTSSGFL

[2] = cytotoxicity toward DRD oncogenic fibroblasts, dose response, cell-based, non-viral oncogenic, luminescence (AID 1934); type: functional; details: Homo sapiens
HEK293 [3] = experiment: NOD2 signaling inhibitors in MDP-stimulated cells, cell-based, uHTS, luminescence (AID 2001); type: functional; details: Homo sapiens
[4] = HepG2 cell cytotoxicity, dose response, cytotoxicity control for Shn3 inhibitor project, CellTiter-Glo, cherry-picked (AID 624134); type: functional, cell-based
HEK293 [5] = experiment: cells; type: functional, cell-based; details: Homo sapiens
[6] = control 3'UTR Renilla luciferase suppression, dose response, counter-screen for Shn3 inhibitor project, cell-based, Clone20-Shn3RL, cherry-picked (AID 624133); type: functional
HEK293 [7] = experiment: cells; type: functional, cell-based; details: Homo sapiens; remark: listed apart in the source
[8] = target: Nucleotide-binding oligomerization domain-containing protein 2 (Homo sapiens, UniProt Q9HC29); experiment: NOD2 signaling inhibitors, cell-based, luminescence, uHTS, HEK293 (AID 1566); type: functional
[9] = Luminescence-based dose response cell-based high throughput screening assay for cytotoxic compounds using the IEC-6 intestinal epithelial cell line. [Related pubchem assays: 1858 (Summary AID.), 1825 (Counterscreen.), 1907 (Confirmation screen.)]; type: functional
BJ [10] = experiment: cytotoxicity toward BJ-TERT fibroblasts, dose response, cell-based, RAS-independent, luminescence (AID 1933); type: functional; details: Homo sapiens
cells [11] = type: functional, cell-based
[12] = inhibitors of intracellular T. cruzi replication, confirmation, NIH3T3 host cells, beta-gal luminescence (AID 2044); type: functional, cell-based;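 also: intracellular parasites grown in NIH/3T3 mouse fibroblasts as host cells; luminescent beta-galactosidase reporter signal from transgenic T. cruzi replicating inside host cells; inhibitors lower the luminescence signal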
cells [13] = type: functional, cell-based; remark: listed apart in the source
HEK293 [14] = experiment: cells; type: functional, cell-based; details: Homo sapiens; remark: listed apart in the source
HEK293 [15] = experiment: inhibitors of LMP1-driven NF-kB reporter, dose response, cell-based, HEK293, luciferase, cherry-pick (AID 588343); type: functional; details: Homo sapiens
[16] = Shn3 3'UTR reporter inhibitors, dose response, cell-based, Clone20 osteoblasts, firefly luciferase, cherry-picked (AID 624132); type: functional;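 also: firefly luciferase luminescence from reporter carrying the Shn3 3'UTR in osteoblasts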
[17] = tested on: Streptococcus sp. 'group A'; experiment: growth inhibition of control SK(-) GAS strain, dose response, counter-screen for streptokinase expression inhibitor project, luminescence, kanamycin, BacTiterGlo, confirmation (AID 1900); type: functional, organism-based
BJ [18] = experiment: cytotoxicity toward BJ-TERT-LT-ST fibroblasts, dose response, cell-based, RAS-independent, luminescence (AID 1935); type: functional; details: Homo sapiens;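 also: BJ fibroblasts immortalized with TERT plus LT and ST oncogenes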
BJ [19] = experiment: cells; type: functional, cell-based; details: Homo sapiens
Streptococcus = experiment: Group A Streptococcus viability loss, dose response, counter-screen for streptokinase expression inhibitor project, luminescence, BacTiterGlo (AID 1915); type: functional, organism-based;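 also: potency for reduction of bacterial viability or growth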
[20] = cytotoxicity toward NIH3T3 fibroblasts, dose response, counter-screen, cell-based, ATP luminescence, mouse fibroblasts (AID 2010); type: functional;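 also: cells exposed to compound for about 90 hours before reading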
HEK293 [21] = experiment: NOD1 signaling inhibitors, primary screen, cell-based, luminescence, uHTS (AID 1578); type: functional; details: Homo sapiens
HEK293 [22] = experiment: cells; details: Homo sapiens
HEK293 [23] = experiment: cells; details: Homo sapiens; remark: listed apart in the source
Galanin receptor type 2 = Galanin receptor type 2 (Homo sapiens, UniProt O43603); experiment: Dose Response cell-based high-throughput screening assay to identify antagonists of galanin receptor 2 (GALR2). [Related pubchem assays: 828, 866 ]; type: functional
Sequence of Galanin receptor type 2 (O43603 whole entry): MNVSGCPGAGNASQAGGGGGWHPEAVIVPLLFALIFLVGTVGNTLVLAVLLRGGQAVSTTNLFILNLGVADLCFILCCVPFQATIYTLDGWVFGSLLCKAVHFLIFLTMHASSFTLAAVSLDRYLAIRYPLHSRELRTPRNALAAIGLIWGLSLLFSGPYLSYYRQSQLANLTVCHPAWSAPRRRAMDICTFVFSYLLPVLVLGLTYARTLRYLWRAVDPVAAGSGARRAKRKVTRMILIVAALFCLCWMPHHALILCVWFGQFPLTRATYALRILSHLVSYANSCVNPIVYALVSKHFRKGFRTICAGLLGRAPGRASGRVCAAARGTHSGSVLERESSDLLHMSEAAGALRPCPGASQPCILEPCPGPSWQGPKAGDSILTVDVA

Sequence of Nucleotide-binding oligomerization domain-containing protein 2 (Q9HC29 whole entry, the tested form may be a part): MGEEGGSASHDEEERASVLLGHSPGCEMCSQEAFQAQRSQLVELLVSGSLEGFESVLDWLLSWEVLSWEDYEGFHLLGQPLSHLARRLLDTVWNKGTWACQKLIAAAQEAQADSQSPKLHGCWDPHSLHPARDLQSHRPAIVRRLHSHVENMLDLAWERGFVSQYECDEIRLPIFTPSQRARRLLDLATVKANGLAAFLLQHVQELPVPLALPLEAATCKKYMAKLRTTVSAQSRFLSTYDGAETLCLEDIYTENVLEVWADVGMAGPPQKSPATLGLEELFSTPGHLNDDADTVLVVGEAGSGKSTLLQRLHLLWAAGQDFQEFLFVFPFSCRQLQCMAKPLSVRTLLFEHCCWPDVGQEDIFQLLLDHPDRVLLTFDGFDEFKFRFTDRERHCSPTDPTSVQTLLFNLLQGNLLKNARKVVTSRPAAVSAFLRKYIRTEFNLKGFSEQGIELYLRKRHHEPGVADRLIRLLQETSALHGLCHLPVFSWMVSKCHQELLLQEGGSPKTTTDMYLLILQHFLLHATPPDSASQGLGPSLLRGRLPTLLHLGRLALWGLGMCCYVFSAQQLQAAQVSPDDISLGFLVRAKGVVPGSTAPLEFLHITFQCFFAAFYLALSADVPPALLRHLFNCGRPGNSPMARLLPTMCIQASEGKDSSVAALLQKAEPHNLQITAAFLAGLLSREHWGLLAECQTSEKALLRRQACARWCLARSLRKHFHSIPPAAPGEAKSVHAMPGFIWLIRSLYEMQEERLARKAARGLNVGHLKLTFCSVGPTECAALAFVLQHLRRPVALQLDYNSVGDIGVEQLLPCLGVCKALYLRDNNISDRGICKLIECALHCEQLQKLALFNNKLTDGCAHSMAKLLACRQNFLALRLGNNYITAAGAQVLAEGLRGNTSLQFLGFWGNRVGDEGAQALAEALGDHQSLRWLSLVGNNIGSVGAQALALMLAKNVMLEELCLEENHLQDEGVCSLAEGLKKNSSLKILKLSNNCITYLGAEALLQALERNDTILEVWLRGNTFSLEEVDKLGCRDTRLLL

Structure (SMILES): COc1ccccc1NC(=O)c1ccc2c(c1)nnn2C
- EC50 [1]: 0.195 µM (active)

Structure (SMILES): CC(=O)NC(c1ccc(Cl)cc1Cl)c1ccc2cccnc2c1O (stereo not given)
- EC50 [2]: 0.95 µM (active)
- IC50 (HEK293 [3]): > 20 µM (inactive)
- AC50 [4]: 0.764 µM (active)
- IC50 (HEK293 [5]): > 20 µM (inactive)
- AC50 [6]: 0.778 µM (active)
- IC50 (HEK293 [7]): > 20 µM (inactive)
- EC50 [8]: > 20 µM (inactive)
- IC50 [9]: 0.386 µM (active)
- EC50 (BJ [10]): 0.837 µM (active)
- EC50 (cells [11]): 4.6 µM (active)
- EC50 [12]: 0.163 µM (active)
- EC50 (cells [13]): > 350 µM (not active)
- IC50 (HEK293 [14]): 12 µM (active)
- AC50 (HEK293 [15]): 4.24 µM (active)
- AC50 [16]: 0.465 µM (active)
- EC50 [17]: 4.98 µM (active)
- EC50 (BJ [18]): 2.82 µM (inconclusive)
- EC50 (BJ [19]): 6.93 µM (active)
- EC50 (Streptococcus): 6.93 µM (active)
- EC50 [20]: 0.192 µM (active)
- EC50 (HEK293 [21]): > 20 µM (inactive)

Structure (SMILES): CN(C(S)=NC1CCCCC1)C1(c2ccccc2Cl)CCCCC1=O (stereo not given)
- EC50 (HEK293 [22]): > 59.6 µM (inactive)
- EC50 (HEK293 [23]): > 59.6 µM (inactive)
- IC50 (Galanin receptor type 2): > 42 µM (not active)

Reference: ChEMBL document CHEMBL1201862, “PubChem BioAssay data set” (2004)
